ChEMBL document CHEMBL2384927, “Development of Unsymmetrical Dyads As Potent Noncarbohydrate-Based Inhibitors against Human β-N-Acetyl-d-hexosaminidase” (ACS Med Chem Lett, 2013)
The source made the active and inactive calls. No cut-off for these calls is given here.

Biological target: T1, Beta-N-acetyl-D-hexosaminidase-A/B (Homo sapiens) (UniProt P07686+P06865)
Assay: Inhibition of human beta-N-acetyl-D-hexosaminidase-A/B using 4-Methylumbelliferyl N-acetyl-beta-D-glucosaminide as substrate at 50 uM incubated for 10 mins prior to substrate addition by spectrofluorometric analysis relative to control
Type: protein assay

inhibition [%]	SMILES
< 50	NCCN1C(=O)c2cccc3c(Br)ccc(c23)C1=O
< 50	NCCN1C(=O)c2cccc3cccc1c23
< 50	COc1ccc2c3c(cccc13)C(=O)N(CCN)C2=O
< 50	NCCCCCCN1C(=O)c2cccc3cccc(c23)C1=O
< 50	O=C1c2cccc3cccc(c23)C(=O)N1CCNCCOc1ccc([N+](=O)[O-])cc1
< 50	COc1cccc(NCCNCCN2C(=O)c3cccc4cccc(c34)C2=O)c1
< 50	COc1ccc(SCCCNCCN2C(=O)c3cccc4cccc(c34)C2=O)cc1
< 50	CN(C)c1ccc2c3c(cccc13)C(=O)N(CCN)C2=O
< 50	O=C1c2cccc3cccc(c23)C(=O)N1CCNCCOc1ccc(Cl)cc1
< 50	O=C1c2cccc3cccc(c23)C(=O)N1CCNCCOc1ccc(OC(F)(F)F)cc1
< 50	NCCN1C(=O)c2ccccc2C1=O

Biological target: T2, Beta-hexosaminidase subunit alpha (Homo sapiens, UniProt P06865)
T2 sequence (P06865 whole entry): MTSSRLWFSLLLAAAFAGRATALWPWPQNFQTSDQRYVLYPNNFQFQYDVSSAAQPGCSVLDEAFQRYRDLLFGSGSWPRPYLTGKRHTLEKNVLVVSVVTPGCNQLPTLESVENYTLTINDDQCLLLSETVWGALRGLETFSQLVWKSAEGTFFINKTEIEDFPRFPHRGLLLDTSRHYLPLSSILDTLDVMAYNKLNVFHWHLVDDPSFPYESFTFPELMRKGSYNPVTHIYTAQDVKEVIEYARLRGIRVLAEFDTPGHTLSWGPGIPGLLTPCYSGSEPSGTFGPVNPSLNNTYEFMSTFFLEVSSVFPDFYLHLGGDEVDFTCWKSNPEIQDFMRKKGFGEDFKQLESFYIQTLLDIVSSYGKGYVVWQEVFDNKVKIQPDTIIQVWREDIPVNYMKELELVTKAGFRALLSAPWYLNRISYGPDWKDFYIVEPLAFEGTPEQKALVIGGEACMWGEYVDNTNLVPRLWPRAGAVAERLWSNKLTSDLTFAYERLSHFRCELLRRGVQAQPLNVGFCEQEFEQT
Assay: Competitive inhibition of human beta-N-acetyl-D-hexosaminidase-A using 4-Methylumbelliferyl N-acetyl-beta-D-glucosaminide as substrate assessed as release of 4-Methylumbelliferyl fluorophore measured for 7 mins

IC50 [µM]	SMILES
6	O=C1c2cccc3cccc(c23)C(=O)N1CCNCCN1C(=O)c2cccc3cccc(c23)C1=O

Biological target: T3, Beta-N-acetyl-D-hexosaminidase-A/B (Homo sapiens, UniProt P07686+P06865)
T3 sequence (P07686 whole entry): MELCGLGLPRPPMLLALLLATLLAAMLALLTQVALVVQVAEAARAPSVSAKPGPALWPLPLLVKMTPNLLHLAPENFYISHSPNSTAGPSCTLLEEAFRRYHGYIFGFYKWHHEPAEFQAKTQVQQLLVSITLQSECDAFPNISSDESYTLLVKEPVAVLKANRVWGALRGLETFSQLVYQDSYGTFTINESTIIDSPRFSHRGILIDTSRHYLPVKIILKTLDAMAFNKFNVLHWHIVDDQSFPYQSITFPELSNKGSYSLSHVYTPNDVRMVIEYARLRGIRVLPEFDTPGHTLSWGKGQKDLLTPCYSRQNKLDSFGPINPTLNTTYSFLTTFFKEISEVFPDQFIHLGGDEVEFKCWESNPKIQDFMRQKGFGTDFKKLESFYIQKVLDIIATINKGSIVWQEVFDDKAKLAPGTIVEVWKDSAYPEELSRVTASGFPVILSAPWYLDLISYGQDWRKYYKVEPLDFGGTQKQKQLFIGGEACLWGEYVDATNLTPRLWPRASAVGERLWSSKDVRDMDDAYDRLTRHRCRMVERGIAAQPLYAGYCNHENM
T3 sequence (P06865 whole entry): T2 sequence (P06865 whole entry)
Assay: Inhibition of human beta-N-acetyl-D-hexosaminidase-A/B using 4-Methylumbelliferyl N-acetyl-beta-D-glucosaminide as substrate incubated for 10 mins prior to substrate addition by spectrofluorometric analysis
Type: protein assay

Ki [µM]	SMILES
3	O=C1c2cccc3cccc(c23)C(=O)N1CCNCCOc1ccc2c(c1)OCO2
3.22	O=C1c2cccc3cccc(c23)C(=O)N1CCNCCN1C(=O)c2cccc3cccc(c23)C1=O
4.39	COc1cccc(OCCCNCCN2C(=O)c3cccc4cccc(c34)C2=O)c1
4.63	COc1ccc(NCCNCCN2C(=O)c3cccc4cccc(c34)C2=O)c(OC)c1
0.63	COc1ccc(CNCCN2C(=O)c3cccc4cccc(c34)C2=O)cc1
0.69	COc1ccc(OCCNCCN2C(=O)c3cccc4cccc(c34)C2=O)cc1OC
61.74	NCCCCN1C(=O)c2cccc3cccc(c23)C1=O
6.22	COc1cccc(CNCCN2C(=O)c3cccc4cccc(c34)C2=O)c1
0.93	COc1cccc(OCCNCCN2C(=O)c3cccc4cccc(c34)C2=O)c1
1.23	COc1ccc(OCCCNCCN2C(=O)c3cccc4cccc(c34)C2=O)cc1
30.87	O=C1c2cccc3cccc(c23)C(=O)N1CCO
1.04	COc1ccc(OCCNCCN2C(=O)c3cccc4cccc(c34)C2=O)cc1
2.09	NCCN1C(=O)c2cccc3cccc(c23)C1=O
4.2	COC(=O)c1ccc(OCCNCCN2C(=O)c3cccc4cccc(c34)C2=O)cc1
1.08	COc1ccc(NCCNCCN2C(=O)c3cccc4cccc(c34)C2=O)cc1
1.35	COc1ccccc1OCCNCCN1C(=O)c2cccc3cccc(c23)C1=O
2.81	CN(C)CCN1C(=O)c2cccc3cccc(c23)C1=O
29.08	NCCCN1C(=O)c2cccc3cccc(c23)C1=O [NAPHTHALIMIDOPROPYLAMINE]
1.13	COc1ccc(SCCNCCN2C(=O)c3cccc4cccc(c34)C2=O)cc1
4.99	COc1ccc(CNCCN2C(=O)c3cccc4cccc(c34)C2=O)cc1OC

Biological target: T4, Beta-hexosaminidase subunit beta (Homo sapiens, UniProt P07686)
T4 sequence (P07686 whole entry): T3 sequence (P07686 whole entry)
Assay: Competitive inhibition of human beta-N-acetyl-D-hexosaminidase-B using 4-Methylumbelliferyl N-acetyl-beta-D-glucosaminide as substrate assessed as release of 4-Methylumbelliferyl fluorophore measured for 7 mins

IC50 [µM]	SMILES
3.1	O=C1c2cccc3cccc(c23)C(=O)N1CCNCCN1C(=O)c2cccc3cccc(c23)C1=O

Biological target: T1, Beta-N-acetyl-D-hexosaminidase-A/B (Homo sapiens)
Assay: Competitive inhibition of human beta-N-acetyl-D-hexosaminidase-A/B using 4-Methylumbelliferyl N-acetyl-beta-D-glucosaminide as substrate at 0.1 mM incubated for 10 mins prior to substrate addition by Dixon plot analysis
Type: protein assay

inhibition	SMILES
Active	COc1ccc(CNCCN2C(=O)c3cccc4cccc(c34)C2=O)cc1
